What was measured:
RAW264.7 cells = experiment: MTT cell viability assay; assay type: cell-based, mouse; settings: for % cell viability: 24h
From the text: The MTT (3-[4,5-dimethylthiazol-2-yl]-2,5 diphenyl tetrazolium bromide) assay is based on the ability of viable cells with active metabolism to convert the yellow MTT to a purple formazan product, which determines mitochondrial activity. The MTT formazan product agglomerates as an insoluble residuum within the cells, which can be solubilized (in this protocol with DMSO) for homogeneous measurement. Thus, any increase or decrease in the number of viable cells can be detected by measuring the formazan concentration reflected in the optical density (OD) measurement at 540 nm with a reference absorption of 720 nm. This assay is broadly used to measure the in vitro cytotoxic effects of drugs on cell lines or primary cells. For the experimental procedure a standard solution of MTT 1mg/mL in PBS was prepared which after filtration ([…] filter (Millipore, Carrigtwohill, Ireland)) was stored in the dark (4-8 °C) until use. In brief, RAW 264.7 cells were seeded in a 96-well plate at a density of 30.000 cells/ in 100 µL of medium per well. […] This was followed by incubation for 24 h, 48 h and 72 h. At the end of the incubation 10 µL of MTT was added to each well followed by incubation for 4 hours, for the formation of the formazan crystals. The formazan crystals were then dissolved by adding DMSO and stirring lightly for 30 min, after which the absorbance was measured in a plate reader at 540 nm with a reference absorbance of 720 nm. […] Table 4: % cell viability after treatment of RAW264.7 cells with the samples

[1] = test system: experimental animal model of osteoarthritis (OA); experiment: Knee diameter (digital caliper) and gross observations in collagenase-induced osteoarthritis rat model; assay type: in vivo, Wistar rats; settings: for Right knee diameter: collagenase-injected knee; for Left knee diameter: untreated control knee
Protocol: In order to understand the anti-inflammatory and antioxidant potential of the nanoparticles of the invention in vivo an experimental animal model of osteoarthritis (OA) was established. The OA lesions were caused by matrix degradation of articular cartilage using enzymatic means, such as collagenase type-II. Following the induction of osteoarthritis, the studied nanoparticles were administered for 8 weeks in which period the morphological and behavioral changes were measured and finally histological analysis of the articular cartilage samples concluded the in vivo study.
Healthy adult male Wistar rats (150-200 g) were used for the study, with water and food ad libitum, at a constant temperature of 22°C and controlled lighting (12 h light/12 h dark cycle).
As far as the dispersion procedure of the injectables is concerned, all the natural compounds were dissolved in saline solution, whereas the studied nanoparticles were mechanically grinded in a mortar and pestle set with saline solution and Tween 20 (2% w/v) and heated at 36 °C before each treatment. There were six treatments administered every 10 days. At the end of the experiment rats were euthanized and both knees were collected for histological analysis.
Rats were anesthetized with chloral hydrate. The right knee joints of Group I were injected with normal saline solution and served as a control. Animals from the groups II, III, IV, V, VI, VII were injected with collagenase type II (Clostridium histolyticum). Collagenase (125 collagen digestion unit/mg) was dissolved in saline, and it was injected intra-articularly into the right knee joint twice on days 1 and 4 of the experiment (Al-Saffar, F., H. Ganabadi and S. Fakurazi. Collagenase and sodium iodoacetate-induced experimental osteoarthritis model in Sprague dawley rats. Asian J. Sci. Res. 2: 1-13, 2009). The left knees of all animals were left untreated as a control.
Changes in body weight and knee diameter were measured on the 1st, 4th,11th,21st,31st,41st,51st, 61st, 71st day before every injection. Knee diameter was measured using a digital caliper. […] A change in body weight is also measured as one of the parameters to assess the course of the disease in the OA animal models.

IL-6 in RAW264.7 cells = experiment: IL-6 ELISA in supernatants of LPS-stimulated RAW264.7 cells; assay type: cell-based, mouse; settings: 48h after dilution of nanosystems
Protocol: The assay was carried using the MOUSE IL-6 ELISA KIT by ORIGENE_(CATALOG No. EA100128), which was based on the evaluation on Microwell Plates coated with antibody to mouse IL-6. The general protocol provided by the supplier for the evaluation of the samples as well as the development of the standard curve of IL-6 was followed. All reagents and working standards were prepared as directed in the instruction form and determined the number of microwell strips required to test the desired number of samples plus appropriate number of wells needed for running blanks and standards. Then 100µL of Standard, control, or sample, were added per well and the plate was cover with the adhesive strip provided and incubated for 1.5 hours at 37°C.
Afterwards, each well was aspirated and washed, and the process was repeated three times for a total of four washes by filling each well with Wash Buffer. […]
After incubation washing was carried out again, followed by the addition of the working solution of Streptavidin-HRP to each well. […] Finally, the plate was gently tapped to ensure thorough mixing and determine the optical density (OD) of each well immediately, using a microplate reader set to 450 nm (optionally 630nm as the reference wavelength;610-650nm is acceptable).
The OD measured for all samples is reflected on the IL-6 standard curve which was developed following the same steps. […] This quantitative assay is based on the sandwich principal as previously described, utilizing the cell culture supernatants for the evaluation of IL-6 protein presence in LPS-treated cells in the presence of the evaluated samples.
For this protocol, RAW264.7 cells were treated with LPS prior to the measurement to stimulate IL-6 production and results are reported as pg/ml of IL-6 corresponding to the standard curve of IL-6 developed ([…]). […] Table 3: Anti-inflammatory potential of the samples expressed as IL-6 presence in LPS-stimulated RAW264.7 cells supernatants.

CCK-8 viability assay = assay type: cell-based; settings: human, primary human chondrocytes; read-out: Mean % relative viability
Protocol: b) The viability of human primary chondrocytes was evaluated following incubation with increasing concentrations of either the pure Naringin (S1) or the nanosystems (Samples S2 and S3) at 2-10-50µM of encapsulated Naringin (1:5 serial dilutions) for 72h (higher concentrations were not used because the nanosystems become insoluble and aggregates sediment on the cell monolayer). For S2 this corresponded to 6,4 µg/ml (for 2 µM of Naringin), 32 µg/ml (for 10 µM of Naringin) and 158 µg/ml (for 50 µM of Naringin) respectively, of total NP concentration. For S3 (CS[PLA[NAR]]) the total NP concentrations to provide the same µM of encapsulated Naringin were 14,4 / 72 / 360 µg/m). As control for the nanosystems, a blank PLA nanoparticle preparation coated with chitosan (S4) was used, at the same µg/ml polymer concentration like the ones used to achieve the 2-10-50µM range for Naringin (the difference being that the blank contains no Naringin). Finally, the blank S4 was used at the 14,4/72/360 µg/ml concentration range (1:5 serial dilutions). Following incubation, the CCK-8 viability kit was used according to manufacturer's instructions (Sigma, 96992-500TESTS-F). Macroscopical and microscopical observation confirmed the proper complete solubility and dispersion of the Nanoparticles. Importantly, healthy cell morphology was observed (spindle-like attached cells with several processes) with concomitant absence of undissolved material.
Table 5. Effect of the natural products and the nanosystems on the relative cell viability of primary human chondrocytes. Measurements obtained using the CCK-8 viability kit. Values normalized to positive control (PC; set to 100; arbitrary unit). Samples' coding: S1= pure Naringin, S2=Naringin encapsulated in PLA nanoparticles [PLA[NAR]], S3=Naringin encapsulated in PLA nanoparticles coated with chitosan CS[PLA[NAR]], and S4=Blank PLA nanoparticles coated with chitosan, CS(PLA[---]].

[2] = 40 days (half of experimental protocol)
[3] = 70 days (end of experimental protocol)

## C[C@@H]1O[C@@H](O[C@H]2[C@H](Oc3cc(O)c4c(c3)O[C@H](c3ccc(O)cc3)CC4=O)O[C@H](CO)[C@@H](O)[C@@H]2O)[C@H](O)[C@H](O)[C@H]1O [S1 [NAR], Naringin]
RAW264.7 cells; 25 µM
  % cell viability: 100%
RAW264.7 cells; 50 µM
  % cell viability: 100%
RAW264.7 cells; lower concentrations
  cytotoxicity / cell viability (in words): full cell viability
[1]; 11 days (before treatment)
  % Changes in Left knee diameter: 0,26%
  % Changes in Right knee diameter: 4,14%
[1]; [2]
  % Changes in Left knee diameter: 0,79%
  % Changes in Right knee diameter: 3,25%
[1]; [3]
  % Changes in Left knee diameter: 0,84%
  % Changes in Right knee diameter: 2,35%
[1]; 1st injection CO/saline (before treatment)
  Right knee diameter: 0,85 cm
[1]; 1st treatment, 10 mg/kg (S1, ibuprofen i.p.; nanoparticles i.a.)
  Right knee diameter: 0,8852 cm
[1]; 2nd injection CO/saline (before treatment)
  Right knee diameter: 0,882 cm
[1]; 3rd treatment
  Right knee diameter: 0,9 cm
[1]; 4th treatment
  Right knee diameter: 0,8776 cm
  Left knee diameter: 0,864 cm
[1]; 5th treatment
  Right knee diameter: 0,8712 cm
[1]; 6th treatment
  Right knee diameter: 0,87 cm
[1]; final
  Right knee diameter: 0,87 cm
  Left knee diameter: 0,8644 cm
[1]; 1st injection CO/saline
  Left knee diameter: 0,8572 cm
[1]; 1st treatment
  Left knee diameter: 0,8594 cm
[1]; 2nd injection CO/saline
  Left knee diameter: 0,858 cm
IL-6 in RAW264.7 cells; 25 µM
  IL-6: 720,000 pg/ml
IL-6 in RAW264.7 cells; 50 µM
  IL-6: 700,000 pg/ml
IL-6 in RAW264.7 cells; 100 µM
  IL-6: 455,000 pg/ml
CCK-8 viability assay
  viability at 72 h, 10 µM: 136%
  viability at 72 h, 50 µM: 130%
  viability at 72 h, 200 µM: 111%
